One test deals with H3122 cells (EML4-ALK). Description: Cell growth inhibition assay (WST-8), H3122. Format: cell-based. To be noted: Homo sapiens, NCI-H3122, read-out: H3122 (nM) (EML4-ALK), 50% of cell growth inhibition (IC50), WST-8, versus DMSO control. The procedure:
H3122 and Kappas-299 cells were purchased from American Type Culture Collection (Manassas, Va., USA) and were used within 2 months after initiating from original stocks. All cell lines were cultured as recommended. For cell growth inhibition assay, cells were treated with different concentrations of the tested compounds, diluted from stock to culture media containing a 0.2% DMSO as the final concentration. Cell viability was determined using the WST-8 cell proliferation assay kit (Dojindo Molecular Technologies) according to manufacturer's instructions. Three independent experiments in triplicates were performed.

A further test concerns the target T1, ALK F1197M (Homo sapiens, UniProt Q9UM73).
T1 construct: Mutated ALK proteins were expressed in SF9 insect cells with N-terminal tags cleaved after purification; fused on or other part: N-terminal tag, cleaved after purification
Kind of test: Mutant ALK kinase inhibition, F1197M. Format: biochemical. To be noted: Table 5.

The next test deals with T2, ALK G1269A (Homo sapiens, UniProt Q9UM73, G1269A).
T2 construct: made in house; host or cells: SF9 insect cells
Description: Mutant ALK kinase inhibition, Lance TR-FRET, G1269A. Format: biochemical. To be noted: Table 5; ATP 100 μM. As for the experimental part: (§1) The cytoplasmic domain (amino acid 1058-1620) of wild-type human ALK protein expressed as N-terminal GST-fusion protein was purchased from Carna Biosciences, Inc (Japan). Mutated ALK proteins were expressed in SF9 insect cells with N-terminal tags cleaved after purification. Kinase activities of all enzymes were assessed using a Lance® TR-FRET assay kit from Perkin Elmer Life Sciences (Waltham, Mass.). 2.5 μL of compound solution and 5 μL of protein solution were added into a black low volume 384 well microtiter plate which was incubated for 30 minutes with gentle shaking at room temperature, followed by adding 2.5 μL of fluorescently labeled peptide substrate (ULight™-IRS-1 (Tyr983) Peptide) and ATP mixture solution. The kinase reaction was performed in 50 mM HEPES (pH 7.5) with 1 mM EGTA, 1 mM MgCl2, and 2 mM DTT, 0.01% Tween-20 added right before the assay. Final concentrations of ATP, substrates, and DMSO were 100 μM, 20 nM, and 0.5%, respectively. […] The final mixture was incubated in the dark for 1 hour before the plate was read on a Tecan Infinite M-1000 multi-mode plate reader (Tecan, Durham N.C.) with an excitation wavelength of 320 nm. Emission intensities were measured at both 620 and 665 nm with the intensity ratio between 665 and 620 nm corresponding to the peptide substrate phosphorylation. […]
(In general: In TR-FRET formats the signal depends on donor and acceptor labels being close together.)

The next test has as its target T3, ALK L1196M (Homo sapiens, UniProt Q9UM73, L1196M).
T3 construct: made in house; host or cells: SF9 insect cells
Kind of test: Mutant ALK kinase inhibition, Lance TR-FRET, L1196M. Format: biochemical. To be noted: Table 5; ATP 100 μM. The procedure: as §1

In the next test the target is ALK F1174L (Homo sapiens, UniProt Q9UM73, F1174L). Kind of test: Cell based assay, ALK F1174L. On the set-up: key: + = active; −− = inactive. To be noted: Table 5.
A further test deals with T4, ROS1 (Homo sapiens, UniProt P08922).
T4 construct: purchased LeadHunter Discovery Services (currently DiscoverX Corporation), KINOMEscan screening service
Description: KINOMEscan kinase panel, ROS1. Format: binding. From the text: (§2) Cpd. No. 5 was screened for its activity against a panel of human kinases using the KINOMEscan™ screening platform from LeadHunter Discovery Services (currently DiscoverX Corporation (Fremont, Calif. 94538, United States). See Table 7.

Another test deals with T5, FAK (Homo sapiens, UniProt Q05397).
T5 construct: purchased LeadHunter Discovery Services (currently DiscoverX Corporation), KINOMEscan screening service
Kind of test: KINOMEscan kinase panel, FAK. Format: binding.
Description: as §2

The next test has as its target T6, LRRK2 (Homo sapiens, UniProt Q5S007).
T6 construct: purchased LeadHunter Discovery Services (currently DiscoverX Corporation), KINOMEscan screening service
Description: KINOMEscan kinase panel, LRRK2. Format: binding.
Description: as §2

The target of the next test is T7, LRRK2(G2019S) (Homo sapiens, UniProt Q5S007, G2019S).
T7 construct: purchased LeadHunter Discovery Services (currently DiscoverX Corporation), KINOMEscan screening service
Description: KINOMEscan kinase panel, LRRK2(G2019S). Format: binding.
Description: as §2

A further test concerns the target T8, FER (Homo sapiens, UniProt P16591).
T8 construct: purchased LeadHunter Discovery Services (currently DiscoverX Corporation), KINOMEscan screening service
Kind of test: KINOMEscan kinase panel, FER. Format: binding.
Description: as §2

A further test deals with T9, FES (Homo sapiens, UniProt P07332).
T9 construct: purchased LeadHunter Discovery Services (currently DiscoverX Corporation), KINOMEscan screening service
Kind of test: KINOMEscan kinase panel, FES. Format: binding.
Description: as §2

The next test addresses T10, IGF1R (Homo sapiens, UniProt P08069).
T10 construct: purchased LeadHunter Discovery Services (currently DiscoverX Corporation), KINOMEscan screening service
Kind of test: KINOMEscan kinase panel, IGF1R. Format: binding.
Description: as §2

The target of the next test is T11, INSRR (Homo sapiens, UniProt P14616).
T11 construct: purchased LeadHunter Discovery Services (currently DiscoverX Corporation), KINOMEscan screening service
Kind of test: KINOMEscan kinase panel, INSRR. Format: binding.
Description: as §2

The test system of test [1] is Human lymphoma cells, KARPAS 299 xenograft. Kind of test: KARPAS 299 xenograft tumor growth in SCID mice. To be noted: given orally, once daily for 3 weeks, FIG. 1. Format: in vivo. The procedure: Cpd. Nos. 5 and 6 were dissolved in a solution of 98% PEG200: 2% TPGS (Sigma).
Human lymphoma cells, KARPAS 299 were maintained at 37° C., 95% air, 5% carbon dioxide in RPMI 1640 medium supplemented with 10% Fetal Bovine Serum, 100 units/ml of penicillin and 100 units/ml of streptomycin (GIBCO™, Invitrogen Corp.) and passaged twice weekly.
Tumor cells for xenografts were washed twice in PBS, and re-suspended in an ice cold mixture of 1:1 PBS and Matrigel (BD Biosciences, Invitrogen Corp.) for a final Matrigel protein concentration of 5 mg/ml. Cells at 5×10^6 cells in 0.1 ml were injected subcutaneously (s.c.) into the flank region of each mouse. All tumors were inoculated into SCID mice (strain:236 C.B-17 SCID, Charles River).
The size of tumors growing in the mice was measured in two dimensions using calipers. Tumor volume (mm^3)=(AxB^2)/2 where A and B are the tumor length and width (in mm), respectively. During treatment, tumor volume and body weight were measured three times a week. After the treatment was stopped, tumor volume and body weight was measured at least once a week.
Tumors were not allowed to exceed 10% of the animal's total body weight. If an animal had two or more tumors the total weight of all tumors were not allowed to exceed 10% of the animal's total body weight. […]

These results are taken from patent publication US10709705B2, “Aminopyrimidines as ALK inhibitors” (THE REGENTS OF THE UNIVERSITY OF MICHIGAN, priority 2016, dated 2020).

Regarding `Cc1cc(Nc2ncc(Cl)c(Nc3ccccc3S(=O)(=O)C(C)C)n2)c(OC(C)C)cc1C1=CCN(C2CCOCC2)CC1` [Cpd. No. 5, 5-chloro-N2-(2-isopropoxy-5-methyl-4-(1-(tetrahydro-2H-pyran-4-yl)-1,2,3,6-tetrahydropyridin-4-yl)phenyl)-N4-(2-(isopropylsulfonyl)phenyl)pyrimidine-2,4-diamine], the IC50 with H3122 cells (EML4-ALK) amounted to 27 nM; at ALK F1197M, 3.3 nM; against ALK G1269A it was 4.3 nM; at ALK L1196M, 0.73 nM. Also, on ALK F1174L, the “F1174L (c)” value is “−− (c)”. For the same compound, the equilibrium dissociation constant (Kd) on ROS1 was 0.73 nM; on FAK it was 5.4 nM; on LRRK2 it was 6.5 nM; at LRRK2(G2019S), 6.6 nM; on FER it was 11 nM; on FES it was 12 nM. Moreover, the dissociation constant Kd at IGF1R turned out to be 9 nM; on INSRR, 32 nM. Also, the “tumor growth in the KARPAS 299 xenograph model” value in [1] is recorded as “inhibit tumor growth”.

The IC50 is the concentration that gives 50% inhibition. As usually defined, the Kd is a measure of binding affinity in units of concentration.
